Results reported in patent US20230286973A1, “PROTEIN SECRETION INHIBITORS” (KEZAR LIFE SCIENCES, priority 2020, published 2023).
Read-outs that look alike come from different tables or passages of the source.

Assays:
[1] = system: multiple myeloma cell line NCI-H929; assay: H929 Cell Viability Assay; assay type: cell-based, human; settings: Homo sapiens, NCI-H929, 48 h, NCI-H929 cells, Celltiter-Glo
Experimental: The human multiple myeloma cell line NCI-H929 was cultured in Advanced RPMI 1640 media (Gibco®) supplemented with 6% fetal bovine serum, 2 mM Glutamine, and 1× Penicillin/Streptomycin. On the day of assay, cells were resuspended in RPMI 1640 media supplemented with 10% fetal bovine serum, 2 mM Glutamine, and 1× Penicillin/Streptomycin and plated in 384-well tissue culture plates and treated with compound dilutions in DMSO/media. Plates were incubated at 37° C., 5% CO2 for 48 hours. After 48 hours, Celltiter-Glo® (Promega) was added to each well and luciferase signal was quantified using Tecan Infinite M1000 Pro for cell viability determination.
(§1) For chemical structures that include one or more stereoisomers, but are illustrated without indicating stereochemistry, the assay data refers to a mixture of stereoisomers.

[2] = system: PD1-ss+10aa/Gaussia Luciferase; assay: Dox-Induced PD1-ss-Gluc Assay; assay type: cell-based; settings: 24 hr Dox induction, 293FRT/TO cells, read-out: 24 hr Dox Inducible PD1ssGluc 293FRT/TO: Mean IC50
Summary of the method: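 Gaussia luciferase fused downstream of the PD1 signal peptide plus 10 residues was expressed on doxycycline induction in stably transfected Flp-In 293 T-REx cells. Compounds were added with doxycycline and incubated at 37 °C, 5% CO2.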

[3] = system: multiple myeloma cell line U266B1; assay: U266 Cell Viability Assay; assay type: cell-based, human; settings: Homo sapiens, U-266, 48 h, U266B1 cells, Celltiter-Glo
Experimental: The human multiple myeloma cell line U266B1 was cultured in RPMI 1640 media supplemented with 10% fetal bovine serum, 2 mM Glutamine, and 1× Penicillin/Streptomycin. Cells were plated in 384-well tissue culture plates and treated with compound dilutions in DMSO/media. Plates were incubated at 37° C., 5% CO2 for 48 hours. After 48 hours, Celltiter-Glo® (Promega) was added to each well and luciferase signal was quantified using Tecan Infinite M1000 Pro for cell viability determination.
as §1

[4] = system: IL-2-FL/Gaussia Luciferase; assay: Dox Induced IL2-FL-Gluc Assay; assay type: cell-based; settings: for IC50: 24 hr Dox induction, 293FRT/TO cells, read-out: 24 hr Dox Inducible IL2FLGluc 293FRT/TO: Mean IC50; for 24 hr Dox Inducible IL2FLGluc 293FRT/TO: IL2/PD1: ratio of IL2FLGluc IC50 to PD1ssGluc IC50
Summary of the method: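 A hygromycin- and blasticidin-resistant 293 T-REx clone carrying inducible IL-2–Gaussia luciferase (full-length IL-2, residues 1-153) serves as the cell system. After overnight plating, the cells get test compounds together with doxycycline in DMSO/media and are incubated at 37° C, 5% CO2.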

[5] = system: HER3-ss+4aa/Gaussia Luciferase; assay: Dox-Induced Her3-ss-Gluc Assay; assay type: cell-based; settings: 24 hr Dox induction; 293FRT/TO cells; read-out: 24 hr Dox Inducible Her3(ss + 4)Gluc 293FRT/TO: Mean IC50
Source text: Flp-In 293 T-REx™ cells were transfected with pcDNA™5/FRT/TO plasmid inserted with cDNA encoding Gaussia Luciferase fused to the 3′ end of cDNA encoding HER3 signal sequence plus 4 amino acids (N-[…]-C) (SEQ ID NO: 2). Transfected cells were selected for resistance to the selectable markers Hygromycin and Blasticidin to create a stable cell line that contained the HER3-ss+4aa/Gaussia Luciferase cDNA insert whose expression was regulated under the T-REx™ system. The day before assay, cells were trypsinized and plated in 384-well tissue culture plates. The next day, compound dilutions in DMSO/media containing doxycycline were added to the wells and incubated at 37° C., 5% CO2.
as §1

[6] = system: TNFα-FL/Gaussia Luciferase; assay: Dox Induced TNFα-FL-Gluc Assay; assay type: cell-based; settings: for IC50: 24 hr Dox induction, 293FRT/TO cells, read-out: 24 hr Dox Inducible TNFaFLGluc 293FRT/TO: Mean IC50; for 24 hr Dox Inducible TNFaFLGluc 293FRT/TO: TNF/PD1: ratio of TNFaFLGluc IC50 to PD1ssGluc IC50
Source text: Flp-In 293 T-REx™ cells were transfected with pcDNA™5/FRT/TO plasmid inserted with cDNA encoding Gaussia Luciferase fused to the 3′ end of cDNA encoding full length TNFα (amino acids 1-233). Transfected cells were selected for resistance to the selectable markers Hygromycin and Blasticidin to create a stable cell line that contained the TNFα-FL/Gaussia Luciferase cDNA insert whose expression was regulated under the T-REx™ system. The day before assay, cells were trypsinized and plated in 384-well tissue culture plates. The next day, compound dilutions in DMSO/media containing doxycycline were added to the wells and incubated at 37° C., 5% CO2.
as §1

[7] = Liver Microsome Stability Assay (mouse); settings: mouse liver microsomes, with NADPH, 1.0 uM compound
Experimental: (§2) Stability of a compound was assessed in the presence of liver microsomes from various sources—mouse, rat, monkey and human liver microsomes. 1.0 uM compound, 0.4% DMSO in 0.1 M Potassium Phosphate with 1.0 mg/mL liver microsomes, were incubated at 37° C. with or without 1 mM NADPH. The samples were quenched at 0, and 30 minutes.

[8] = Liver Microsome Stability Assay (monkey); settings: monkey liver microsomes, with NADPH, 1.0 uM compound
Experimental: as §2

[9] = Liver Microsome Stability Assay (human); settings: human liver microsomes, with NADPH, 1.0 uM compound
Experimental: as §2

[10] = Liver Microsome Stability Assay (rat); settings: rat liver microsomes, with NADPH, 1.0 uM compound
Experimental: as §2

[11] = '<=>' given where both are I.A.

| EC50 [1] | IC50 [2] | EC50 [3] | IC50 [4] | IC50 [5] | IC50 [6] | Liver Microsome Stability (Multiple Species): Mouse - % Remaining after 30 min w/NADPH [7] | IC50 ([2]; mean) | Liver Microsome Stability (Multiple Species): Monkey - % Remaining after 30 min w/NADPH [8] | Liver Microsome Stability (Multiple Species): Human - % Remaining after 30 min w/NADPH [9] | Liver Microsome Stability (Multiple Species): Rat - % Remaining after 30 min w/NADPH [10] | IC50 ([4]; mean) | SMILES | 24 hr Dox Inducible IL2FLGluc 293FRT/TO: IL2/PD1 [4] | 24 hr Dox Inducible TNFaFLGluc 293FRT/TO: TNF/PD1 [6] | 24 hr Dox Inducible IL2FLGluc 293FRT/TO: IL2/PD1 [4, 11] |
| --- | --- | --- | --- | --- | --- | --- | --- | --- | --- | --- | --- | --- | --- | --- | --- |
| 1.8 µM | 0.103 µM | > 25 µM | 0.129 µM | 0.135 µM | 0.888 µM | – | – | – | – | – | – | CS(=O)(=O)Nc1ccc(N2CCC[C@@H]2c2csc(NC(=O)c3cccn3Cc3ccnc(F)c3)n2)cc1 [Compound A118, (R)-1-((2-fluoropyridin-4-yl)methyl)-N-(4-(1-(4-(methylsulfonamido)phenyl)pyrrolidin-2-yl)thiazol-2-yl)-1H-pyrrole-2-carboxamide] | 1.2 | 8.6 | – |
| 0.133 µM | 0.00176 µM | > 25 µM | 0.00735 µM | 0.00631 µM | 0.0413 µM | – | – | – | – | – | – | CNC(=O)Nc1ccc(N2CCC[C@@H]2c2csc(NC(=O)c3cccn3Cc3ccnc(F)c3)n2)cc1 [Compound A119, (R)-1-((2-fluoropyridin-4-yl)methyl)-N-(4-(1-(4-(3-methylureido)phenyl)pyrrolidin-2-yl)thiazol-2-yl)-1H-pyrrole-2-carboxamide] | 4.2 | 23.5 | – |
| 0.831 µM | 0.0245 µM | > 25 µM | 0.0426 µM | 0.0345 µM | 0.158 µM | – | – | – | – | – | – | CC(C)Oc1ccc(N2CCC[C@@H]2c2csc(NC(=O)c3cccn3Cc3ccnc(F)c3)n2)cc1 [Compound A120, (R)-1-((2-fluoropyridin-4-yl)methyl)-N-(4-(1-(4-isopropoxyphenyl)pyrrolidin-2-yl)thiazol-2-yl)-1H-pyrrole-2-carboxamide] | 1.7 | 6.44 | – |
| > 25 µM | 0.418 µM | > 25 µM | > 25 µM | > 25 µM | > 25 µM | – | – | – | – | – | – | CCc1cccc2nc(/C=C/c3csc(NC(=O)c4cccn4Cc4ccnc(F)c4)n3)cn12 [Compound B78, (E)-N-(4-(2-(5-ethylimidazo[1,2-a]pyridin-2-yl)vinyl)thiazol-2-yl)-1-((2-fluoropyridin-4-yl)methyl)-1H-pyrrole-2-carboxamide] | >60 | >59.8 | – |
| > 25 µM | – | > 25 µM | – | – | – | 29.1% | 0.909 µM | 9.17% | 1.94% | 2.9% | 1.64 µM | N#Cc1cccc(Cn2cccc2C(=O)Nc2nc([C@H]3CCCN3c3ccccc3)cs2)c1 [Compound C49, (R)-1-(3-cyanobenzyl)-N-(4-(1-phenylpyrrolidin-2-yl)thiazol-2-yl)-1H-pyrrole-2-carboxamide] | – | – | 1.8 |
| > 25 µM | – | > 25 µM | – | – | – | 54.5% | 3.14 µM | 33.4% | 33.8% | 15.1% | 2.06 µM | N#Cc1ccc(Cn2cccc2C(=O)Nc2nc([C@H]3CCCN3c3ccccc3)cs2)cc1 [Compound C50, (R)-1-(4-cyanobenzyl)-N-(4-(1-phenylpyrrolidin-2-yl)thiazol-2-yl)-1H-pyrrole-2-carboxamide] | – | – | 0.66 |
| 23.3 µM | – | > 25 µM | – | – | – | 9.54% | 0.357 µM | 3.43% | 4.2% | 0.43% | 1.07 µM | O=C(Nc1nc([C@H]2CCCN2c2ccccc2)cs1)c1cccn1CC1=CCOCC1 [Compound C57, (R)-1-((3,6-dihydro-2H-pyran-4-yl)methyl)-N-(4-(1-phenylpyrrolidin-2-yl)thiazol-2-yl)-1H-pyrrole-2-carboxamide] | – | – | 3 |
| > 25 µM | – | > 25 µM | – | – | – | 35.4% | 8.44 µM | 0.74% | 53% | 8.75% | > 25 µM | C#CCCn1cccc1C(=O)Nc1nc([C@H]2CCCN2c2ccccc2)cs1 [Compound C62, (R)-1-(but-3-yn-1-yl)-N-(4-(1-phenylpyrrolidin-2-yl)thiazol-2-yl)-1H-pyrrole-2-carboxamide] | – | – | >3.0 |
| 24.6 µM | – | 23.3 µM | – | – | – | 0.82% | 2.52 µM | 0.62% | 0.96% | 0.14% | 5 µM | O=C(Nc1nc([C@H]2CCCN2c2ccccc2)cs1)c1cccn1Cc1cccnc1 [Compound E20, (R)-N-(4-(1-phenylpyrrolidin-2-yl)thiazol-2-yl)-1-(pyridin-3-ylmethyl)-1H-pyrrole-2-carboxamide] | – | – | 2 |
| > 25 µM | – | > 25 µM | – | – | – | 8.68% | 8.24 µM | 7.34% | 26.7% | 1.33% | > 25 µM | O=C(Nc1nc([C@H]2CCCN2c2ccccc2)cs1)c1ccc[nH]1 [Compound E58, (R)-N-(4-(1-phenylpyrrolidin-2-yl)thiazol-2-yl)-1H-pyrrole-2-carboxamide] | – | – | >3.0 |
